This is an account of results in article PMC9930818, “2-((1H-Benzo[d]imidazol-2-yl)amino)benzo[d]thiazole-6-sulphonamides: a class of carbonic anhydrase II and VII-selective inhibitors” (Journal of Enzyme Inhibition and Medicinal Chemistry, 2023).

Experiment in all cases: stopped-flow CO2 hydration assay
What all share (type): biochemical

The target of test [1] is T1, hCA II (Homo sapiens, UniProt P00918).
T1 construct: gene CA2; recombinant, obtained in-house as reported earlier; cytosolic isoform
From the text:
stopped-flow CO2 hydration assay on hCA II

In test [2] the target is T2, hCA IV (Homo sapiens, UniProt P22748).
T2 construct: gene CA4; recombinant, obtained in-house as reported earlier
From the text:
stopped-flow CO2 hydration assay on hCA IV

In test [3] the target is T3, hCA VII (Homo sapiens, UniProt P43166).
T3 construct: gene CA7; recombinant, obtained in-house as reported earlier; cytosolic isoform
From the text: stopped-flow CO2 hydration assay on hCA VII

Test [4] has as its target T4, hCA I (Homo sapiens, UniProt P00915).
T4 construct: gene CA1; recombinant, obtained in-house as reported earlier; cytosolic isoform
An excerpt: stopped-flow CO2 hydration assay on hCA I

The target of test [5] is T3, hCA VII. The settings on record: read-out: KI (nM)^a / hCA I.
The target in test [6] is T1, hCA II. The settings on record: read-out: KI (nM)^a / hCA I.
The target of test [7] is T2, hCA IV. The settings on record: read-out: KI (nM)^a / hCA I.

Each structure is given as a SMILES string. Read-outs that look alike come from different tables or passages of the source. Where only a bound is given, the exact number is not on record here.

T2 sequence (P22748 19-284): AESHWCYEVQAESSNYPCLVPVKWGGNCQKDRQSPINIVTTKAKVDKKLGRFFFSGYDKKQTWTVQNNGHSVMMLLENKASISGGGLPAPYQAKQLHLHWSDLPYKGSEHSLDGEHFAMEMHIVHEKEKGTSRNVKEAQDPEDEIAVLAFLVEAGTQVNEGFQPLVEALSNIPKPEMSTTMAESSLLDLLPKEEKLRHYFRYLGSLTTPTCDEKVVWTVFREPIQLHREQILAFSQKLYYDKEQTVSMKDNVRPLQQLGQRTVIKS
T4 sequence (P00915 2-261): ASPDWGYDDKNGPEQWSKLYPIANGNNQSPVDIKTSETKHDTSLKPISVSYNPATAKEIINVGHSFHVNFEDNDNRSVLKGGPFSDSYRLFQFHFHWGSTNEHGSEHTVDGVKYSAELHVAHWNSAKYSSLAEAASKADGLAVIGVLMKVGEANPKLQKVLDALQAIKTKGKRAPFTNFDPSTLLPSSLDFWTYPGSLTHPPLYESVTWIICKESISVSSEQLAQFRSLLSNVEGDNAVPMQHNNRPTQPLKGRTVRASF
T3 sequence (P43166 whole entry, canonical isoform): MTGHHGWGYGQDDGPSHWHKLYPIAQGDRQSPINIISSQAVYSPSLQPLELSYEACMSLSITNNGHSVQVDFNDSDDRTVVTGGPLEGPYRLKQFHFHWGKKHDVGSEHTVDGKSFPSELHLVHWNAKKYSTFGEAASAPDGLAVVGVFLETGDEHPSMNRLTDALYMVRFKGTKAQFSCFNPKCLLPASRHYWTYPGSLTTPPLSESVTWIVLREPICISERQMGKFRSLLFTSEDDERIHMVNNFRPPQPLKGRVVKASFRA

Take `NS(=O)(=O)c1ccc2nc(NC3=NCCN3)sc2c1` [6a, 2-((4,5-Dihydro-1H-imidazol-2-yl)amino)benzo[d]thiazole-6-sulphonamide]: the Ki was 37.6 nM in test [1], > 100000 nM in test [2], 56.3 nM in test [3] and 422 nM in test [4].

Consider `CC1CN=C(Nc2nc3ccc(S(N)(=O)=O)cc3s2)N1` (stereo not shown) [6b, 2-((5-Methyl-4,5-dihydro-1H-imidazol-2-yl)amino)benzo[d]thiazole-6-sulphonamide], for which the Ki in test [1] was 48.1 nM; in test [2], > 100000 nM; in test [3] it was 37.4 nM; in test [4], 568 nM.

Consider `NS(=O)(=O)c1ccc2nc(NC3=NC4CCCCC4N3)sc2c1` (stereo not shown) [6c, 2-((3a,4,5,6,7,7a-hexahydro-1H-benzo[d]imidazol-2-yl)amino)benzo[d]thiazole-6-sulphonamide], for which the Ki is 65.6 nM in test [1], > 100000 nM in test [2], 82.5 nM in test [3] and 7590 nM in test [4].

Regarding `NS(=O)(=O)c1ccc2nc(Nc3nc4ccccc4[nH]3)sc2c1` [7a, 2-((1H-benzo[d]imidazol-2-yl)amino)benzo[d]thiazole-6-sulphonamide], the Ki in test [1] is 84 nM; in test [2] it was > 100000 nM; in test [3], 66.9 nM; in test [4], 4930 nM.

`NS(=O)(=O)c1ccc2nc(Nc3nc4ccc(C(F)(F)F)cc4[nH]3)sc2c1` [7b, 2-((6-(Trifluoromethyl)-1H-benzo[d]imidazol-2-yl)amino)benzo[d]thiazole-6-sulphonamide]: the Ki in test [1] was 375 nM; in test [2], > 100000 nM; in test [3], 452 nM; in test [4] it was 8100 nM.

For `NS(=O)(=O)c1ccc2nc(Nc3nc4ccc(Cl)cc4[nH]3)sc2c1` [7c, 2-((6-Chloro-1H-benzo[d]imidazol-2-yl)amino)benzo[d]thiazole-6-sulphonamide], the Ki in test [1] is 578 nM; in test [2], > 100000 nM; in test [3], 694 nM; in test [4], 9530 nM.

Consider `O=S(=O)(NC1=NCCN1)c1ccc2nc(NC3=NCCN3)sc2c1` [9a, N-(4,5-Dihydro-1H-imidazol-2-yl)-2-((4,5-dihydro-1H-imidazol-2-yl)amino)benzo[d]thiazole-6-sulphonamide], for which the Ki in test [5], in test [6], in test [7] and in test [4] was > 100000 nM each time.

Regarding `CC1CN=C(Nc2nc3ccc(S(=O)(=O)NC4=NCC(C)N4)cc3s2)N1` (stereo not shown) [9b], the Ki in test [5], in test [6], in test [7] and in test [4] was > 100000 nM each time.

Take `O=S(=O)(NC1=NC2CCCCC2N1)c1ccc2nc(NC3=NC4CCCCC4N3)sc2c1` (stereo not shown) [9c, N-(3a,4,5,6,7,7a-hexahydro-1H-benzo[d]imidazol-2-yl)-2-((3a,4,5,6,7,7a-hexahydro-1H-benzo[d]imidazol-2-yl)amino)benzo[d]thiazole-6-sulphonamide]: the Ki in test [5], in test [6], in test [7] and in test [4] was > 100000 nM each time.

As to `O=S(=O)(Nc1nc2ccccc2[nH]1)c1ccc2nc(Nc3nc4ccccc4[nH]3)sc2c1` [9d], the Ki in test [5], in test [6], in test [7] and in test [4] was > 100000 nM throughout.
